Source: patent US20260169012A1, “WHOLE BLOOD CONTROL SAMPLE SYSTEMS AND METHOD OF PREPARING AND USING THE SAME” (Perosphere Technologies Inc., priority 2020, published 2026)
Read-outs that look alike come from different tables or passages of the source.

Key:
[1] = test system: surrogate whole blood control
Procedure: Plasma was prepared by mixing sheep plasma and horse plasma at a mixing ratio of 1:9. Sheep fibrinogen solution (45.72 mg/mL in 20 mM sodium citrate-HCl, pH 7.4) was diluted to 40 mg/mL by saline. Plasma base was further prepared by mixing 77% (w/v) plasma and 23% (w/v) sheep fibrinogen solution (40 mg/mL). Whole blood control was prepared by resuspending 35% (w/v) 2% glutaraldehyde-fixed horse red blood cells in 65% (w/v) plasma base, with addition of rabbit brain cephalin to a final concentration of 0.144 mg/mL. The whole blood control was then freeze-thawed once and freeze-dried in glass vials. To test the effect of calcium chloride concentration in activation solution on clotting time, the freeze-dried surrogate whole blood control was reconstituted in a diluent solution to half of its original volume, incubated at room temperature for 6 minutes, and mixed by swirling the glass vial gently for an additional 1 minute. The control was then activated by addition of calcium chloride solution of varying concentrations at the volume ratio of 1:1, followed by six times of rapid inversion. The samples were tested on Perosphere Technologies' PoC Coagulometers immediately after activation.

[2] = test system: surrogate whole blood control; assay: Clotting time of surrogate whole blood control on PoC Coagulometer, benzamidine in lyophilizate (Example 2); set-up: species or system horse, sheep; details: for Clotting time: activated with 22 mM calcium chloride
Procedure: Plasma was prepared by mixing sheep plasma and horse plasma at a mixing ratio of 1:9. Sheep fibrinogen solution (45.72 mg/mL in 20 mM sodium citrate-HCl, pH 7.4) was diluted to 40 mg/mL with saline. Plasma base was further prepared by mixing 77% (w/v) plasma and 23% (w/v) sheep fibrinogen solution (40 mg/mL). Whole blood control was prepared by resuspending 35% (w/v) 2% glutaraldehyde-fixed horse red blood cells in 65% (w/v) plasma base, with addition of rabbit brain cephalin to a final concentration of 0.144 mg/mL. Benzamidine of varying concentrations were added to the preparation. The whole blood control was then freeze-dried in glass vials. To test the effect of benzamidine in lyophilizate on clotting time, the freeze-dried surrogate whole blood control was reconstituted in a diluent solution to half of its original volume, incubated at room temperature for 6 minutes, and mixed by swirling the glass vial gently for an additional 1 minute. The control was then activated by addition of 22 mM calcium chloride at the volume ratio of 1:1, followed by six times of rapid inversion. The samples were tested on Perosphere Technologies' PoC Coagulometers immediately after activation.

[3] = test system: surrogate whole blood control; assay: Clotting time of surrogate whole blood control on PoC Coagulometer, benzamidine in activation solution (Example 4); set-up: species or system horse, sheep; details: for Clotting time: 22 mM CaCl2
Procedure: Plasma was prepared by mixing sheep plasma and horse plasma at a mixing ratio of 1:9. Sheep fibrinogen solution (45.72 mg/mL in 20 mM sodium citrate-HCl, pH 7.4) was diluted to 40 mg/mL with saline. Plasma base was further prepared by mixing 77% (w/v) plasma and 23% (w/v) sheep fibrinogen solution (40 mg/mL). Whole blood control was prepared by resuspending 35% (w/v) 3% glutaraldehyde-fixed horse red blood cells in 65% (w/v) plasma base, with addition of rabbit brain cephalin to a final concentration of 0.144 mg/mL. The whole blood control was then freeze-thawed once and freeze-dried in glass vials. To test the effect of benzamidine concentration in activation solution on clotting time, the freeze-dried surrogate whole blood control was reconstituted in a diluent solution to half of its original volume, incubated at room temperature for 6 minutes, and mixed by swirling the glass vial gently for an additional 1 minute. The control was then activated by addition of an activation solution containing 22 mM CaCl2) and varying concentrations of benzamidine at the volume ratio of 1:1, followed by six times of rapid inversion. The samples were tested on Perosphere Technologies' PoC Coagulometers immediately after activation.

SMILES | Clotting time ([1]; CaCl2 concentration in activation solution 14 mM) | Clotting time ([1]; CaCl2 concentration in activation solution 22 mM) | Clotting time ([1]; CaCl2 concentration in activation solution 30 mM) | Clotting time ([1]; CaCl2 concentration in activation solution 40 mM) | Response of clotting time to benzamidine concentration in lyophilizate (dose-response curve) ([2]; 0-2.2 mM in lyophilizate, FIG. 1) | Clotting time ([2]; benzamidine concentration in lyophilizate 1.1 mM) | Clotting time ([2]; benzamidine concentration in lyophilizate 2.2 mM) | Response of clotting time to benzamidine concentration in activation solution ([3]; 0-6.6 mM in activation solution, FIG. 2) | Clotting time ([3]; benzamidine concentration in activation solution 1.1 mM) | Clotting time ([3]; benzamidine concentration in activation solution 2.2 mM) | Clotting time ([3]; benzamidine concentration in activation solution 4.4 mM) | Clotting time ([3]; benzamidine concentration in activation solution 6.6 mM)
[Ca+2].[Cl-].[Cl-] [CaCl2, calcium chloride] | 199.00 s | 154.00 s | 166.00 s | 203.33 s |  |  |  |  |  |  |  | 
N=C(N)c1ccccc1 [Benzamidine, benzamidine] |  |  |  |  | linear | 339.33 s | 495.00 s | linear response | 206.00 s | 249.00 s | 357.67 s | 422.50 s
